Assay results from patent US10723716B2, “Alpha-helix mimetics as modulators of Abeta self-assembly” (New York University, priority 2016, dated 2020).

Key:
Aβ40 [1] = molecular target: T1, Aβ40 (Homo sapiens, UniProt P05067); experiment: Circular dichroism (CD) spectroscopy of Aβ40; type: biochemical; settings: Aβ40, equimolar ratio
T1 construct: Cleavage of APP results in several Aβ isoforms; The predominant species are Aβ42 and Aβ40; purchased Anaspec (Fremont, Calif., USA)
Description: A second set of compounds was identified as potent inhibitors of Aβ aggregation. In contrast to ADH-41, they are negatively charged. […] The absorbance increased gradually from 0 to 6 h indicating an increase in the amount of soluble oligomers of Aβ42. […] A time-dependent increase in the amount of the A11-sensitive Aβ42 oligomeric structures was reflected in the progressive enhancement in the chemiluminescence intensity of the dots, which reached a maximum intensity around 6 h (FIG. 27g). The intensity decreased after 12 h, due to formation of fibers that are not sensitive to the A11 antibody. […] The far UV-CD spectrum of a sample of 20 μM Aβ40 transitioned from that of a random coil to a β-sheet conformation over 24 h (FIG. 27h).
(§1) A freshly prepared stock solution of Aβ42 (500 μM) was diluted to 15 μM in phosphate buffer for CD measurements. The spectra of Aβ42 in the absence and presence of the compounds of the invention were recorded at 0.5 nm intervals from 190 to 260 nm with an averaging time of 10 sec. and an average of three repeats on a Aviv Stopped Flow CD Spectropolarimeter (Model 202SF).

Aβ40 [2] = molecular target: T1, Aβ40; experiment: Seed-catalyzed kinetic assay, Aβ40; type: biochemical; settings: 20 μM Aβ40, 10% seeds, equimolar ratio
Description: Seeds of Aβ40/Aβ42 were prepared by incubating 200 μM of Aβ40/Aβ42 in phosphate buffer at room temperature. The samples were aged for 48 h and the formation of fibers was confirmed by TEM and ThT before storage at −20° C. until use. For the aggregation of Aβ40, 10% (based on the monomeric Aβ40, v/v) seeds were added along with ThT in phosphate buffer to the 96-well plate. The aggregation was initiated by the addition of monomeric Aβ40 followed by gentle mixing. The process was similar in the case of Aβ42 except that the seed concentration was 5% (based on the monomeric Aβ42, v/v).
The seeds were generated by aging 200 μM Aβ peptides for 48 h in phosphate buffer with occasional vortexing. The concentration of seeds was calculated based on the monomeric concentration of Aβ.

Aβ40 [3] = molecular target: T1, Aβ40; experiment: Transmission electron microscopy (TEM) of Aβ40; type: biochemical
N2a cells = experiment: Confocal fluorescence microscopy, cellular uptake; type: cell-based, mouse; settings: 24 h incubation
Description: N2a cells were seeded at a density of 5×10^4 cells/well in 500 μL complete medium in 4-chambered 35 mm glass bottom Cellview cell culture dishes (Greiner Bio-One, Monroe, N.C., USA). […] For mitochondrial colocalization experiments, 50 nM MitoTracker Red FM or MitoTracker Green FM (Thermo Fisher Scientific, Waltham, Mass., USA) was added to the chambers and incubated for 15 min. Thereafter, the medium was removed, the cells were washed with PBS to remove any extracellular peptide, inhibitor or organelle marker, and 300 μL phenol red- and serum-free medium was added to each chambers of the cell culture dish. Imaging was done on an Olympus Fluoview FV1000MPE Confocal/2—Photon microscope, using a 63× Plan-Apo/1.3 NA oil immersion objective with DIC capability. Image processing was done using the Fiji image processing software according to known methodology (Schindelin, J.; Arganda-Carreras, I.; Frise, E.; Kaynig, V.; Longair, M.; Pietzsch, T.; Preibisch, S.; Rueden, C.; Saalfeld, S.; Schmid, B.; Tinevez, J. Y.; White, D. J.; Hartenstein, V.; Eliceiri, K.; Tomancak, P.; Cardona, A. Nat. Methods 2012, 9, 676-682).

Aβ42 = molecular target: T2, Aβ42 (Homo sapiens, UniProt P05067); experiment: Circular dichroism (CD) spectroscopy of Aβ42; type: biochemical; settings: 15 μM Aβ42, equimolar ratio, after 24 h
T2 construct: Cleavage of APP results in several Aβ isoforms; The predominant species are Aβ42 and Aβ40; purchased Anaspec (Fremont, Calif., USA)
T2 sequence (P05067 672-713 limits assumed): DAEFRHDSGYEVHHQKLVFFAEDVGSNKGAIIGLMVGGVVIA
Description: as §1

[4] = molecular target: T3, Nα-amino-terminal fluorescein-labeled Aβ40 (Homo sapiens, UniProt P05067); experiment: Fluorescence titration; settings: 20 mM NaPi, 1% TFE, pH 7.4; read-out: apparent binding affinity (app. Kd)
T3 construct: fluorescein-labeled Aβ40 was purchased from Anaspec (Fremont, Calif., USA); purchased Anaspec (Fremont, Calif., USA)
T3 sequence (P05067 672-711 limits assumed): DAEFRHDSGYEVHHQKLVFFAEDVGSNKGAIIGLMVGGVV
Description: N^α-amino-terminal fluorescein-labeled Aβ40 was purchased from Anaspec (Fremont, Calif., USA) and used without further purification. To ensure the monomeric state of N^α-amino-terminal fluorescein-labeled Aβ40, the peptide was treated similar to other peptides and stored at −80° C. in the dark until use. Fluorescence measurements were performed on a FlexStation 3 Multi-Mode Microplate reader from Molecular Devices (Sunnyvale, Calif., USA). Fluorescence titrations were conducted in triplicate in a 96-well plate with a final well volume of 200 μL. For fluorescence measurements, the fluorescein dye was excited at 492 nm and the spectra were recorded from 500 nm to 600 nm. […] The plot was fitted using a sigmoidal fit to extract the apparent binding affinity.

IAPP = molecular target: T4, IAPP (Homo sapiens, UniProt P10997); experiment: Lipid (LUV) catalyzed IAPP aggregation, ThT; type: biochemical; settings: 10 μM IAPP, LUVs (DOPG:DOPC 1:1, 600 μM), equimolar ratio
T4 construct: purchased Anaspec (Fremont, Calif., USA)
T4 sequence (P10997 34-70 limits assumed): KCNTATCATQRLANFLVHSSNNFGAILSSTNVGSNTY
Description: LUVs were prepared using an equimolar ratio of dioleoylphosphatidylglycerol (DOPG) and dioleoylphosphatidylcholine (DOPC). A solution of DOPG and DOPC (10 mg/mL each) in chloroform was mixed, dried over a stream of argon (g) for 1 h, and then lyophilized for 6 h (0.1×10^−3 bar). The solid was then rehydrated in 1 mL phosphate buffer for 30 min. The turbid solution (10 mg/mL, 1:1, DOPG:DOPC) was then extruded (21 times) through 100 nm diameter filters (Whatman, GE Healthcare, Marlborough, Mass., USA). The concentration of the phospholipid content in the extruded material was confirmed by calculating total phosphorus using total phosphate assay as described in Chen, P. S.; Toribara, T. Y.; Warner, H. Anal. Chem. 1956, 28, 1756-1758.
The effect of the α-helical mimetics was also assessed on the membrane associated α-helical conformation of IAPP.

T1 sequence (P05067 672-711 limits assumed): as the sequence (P05067 672-711 limits assumed) above

Row | Compound | β-sheet formation of Aβ40 (far UV-CD) (Aβ40 [1]) | conformation of Aβ40 (far UV-CD) (Aβ40 [1]; stable after 48 h) | effect on seed-catalyzed Aβ40 fibrillation (Aβ40 [2]) | fiber formation of Aβ40 seen by TEM (Aβ40 [3]; Aβ40 incubated with ADH-41, after 5 days) | aggregates of Aβ40 seen by TEM (Aβ40 [3]; equimolar ratio) | Aβ40 species seen by TEM (Aβ40 [3]; substoichiometric ratio 1:0.1 (Aβ40:ADH-41)) | cell permeability (N2a cells) | β-sheet formation of Aβ42 (far UV-CD) (Aβ42) | Kd [4] | rel. t50 of IAPP fibrillation (IAPP)
1 | COC(=O)c1ccc(NC(=O)c2ccc(NC(=O)c3ccc(NC(=O)c4ccc([N+](=O)[O-])c(OCC(C)C)n4)c(OCc4ccccc4)n3)c(OCC(=O)O)n2)c(OCC(=O)O)n1 [ADH-31] | no β-sheet formation was observed | adopts an α-helical conformation | – | – | – | – | – | – | – | –
2 | COC(=O)c1ccc(NC(=O)c2ccc(NC(=O)c3ccc([N+](=O)[O-])c(OCc4ccccc4)n3)c(OCCCN)n2)c(OCCCN)n1 [ADH-41] | – | – | completely arrested | scant evidence of fiber formation | No aggregates were visible | short protofibrils | good cell permeability | No formation of β-sheet structure | 1.4 ± 0.2 µM | 0.8±0.2
